Assays:
[1] = test system: Hr-1 (Skh-1) hairless mice; test: Tests of wrinkle improvement on hairless mice (UVB-induced wrinkles); type: in vivo; details: 3% sample solution in 50% ethanol, 100 μL on back skin once a day, five times a week, versus solvent (50% ethanol), FIG. 1, statistically significant
Text: Wrinkles were formed on Hr-1 (Skh-1) hairless mice (age 6 to 10 weeks) according to a partly modified version of the method of Schwartz et al. (see Haratake A. et al. J. Invest. Dermatol., 108, 769-775, 1997), in which the mice were repeatedly irradiated with UVB (see Naganuma M. et al. J. Dermatol. Sci., 25, 29-35, 2001; Schwartz E. J. Invest. Dermatol. 91, 158-161, 1988). Specifically, the backs [of the mice] were irradiated with UVB (light source: Toshiba FL-20 SE fluorescent lamp, made by Toshiba Electric) three times a week for ten weeks. The amount of irradiation after the treatment commenced was 36 mJ/cm^2/irradiation. […] The total irradiation amount was 4.6 J/cm^2. Values for the amount of ultraviolet light were measured used a UV radiometer (UVR-305/365D(II), [made by] Topcon). [After] irradiation with ultraviolet light was completed, photographs were taken of the backs of the mice, and the degree of wrinkle generation was scored according to the wrinkle evaluation standards given below using a partially modified version of the method of Bissett et al. (see Bissett, D. L., et al. Photochemistry and Photobiology, 46, 367-378, 1987). Scores of 0, 2, 4, 6, and 8 were used as standard values, and 1, 3, 5, and 7 were used as intermediate scores. […]
The degree of wrinkle improvement of the mice was determined in the following manner. […]

[2] = test system: healthy male panelists having a large number of wrinkles; test: Tests of improvement in wrinkles that form in the corners of the eyes (half-face blind test, replica analysis and survey); type: in vivo; details: 2.5 mass % in face lotion, human eye corners
Procedure: Face lotions (an example and a comparative example) having the compositions given below were applied three times a day using the half-face method (blind tests) to the faces of healthy male panelists having a large number of wrinkles.
Replicas of the eye corner portions to which lotion was applied were acquired using a SILFLO [apparatus] (Flexico Development Ltd.). The proportion of wrinkle area and the proportion of wrinkle volume were determined for before the application of the face lotion (0 M), after one month of application (1 M), and after two months of application (2 M). […] Both the wrinkle area proportion and the wrinkle volume proportion were determined by analyzing the replicas using a wrinkle-measuring apparatus employing a laser-cutting method (see Japanese Laid-Open Patent Application No. 7-113623).
The results of a survey concerning “Impressions of the Effectiveness of Wrinkle Improvement” sent to 23 test subjects are shown in Table 1.

O=C(O)CCNC(=O)c1ccccc1 [N-benzoyl-β-alanine]
degree of wrinkle improvement (score before sample application − score after five weeks of sample application) [1]: reduction in wrinkles dramatically accelerated
wrinkle-improving effect (overall conclusion of Example 2) [2]: had a wrinkle-improving effect

Source: patent publication US20120165409A1, “WRINKLE-IMPROVING AGENT” (SHISEIDO COMPANY, LTD., priority 2005, published 2012)
